# According to US9468670B2, “Melatonin-based treatment and diagnosis of bile duct disease” (Texas A&M University System, priority 2011, dated 2016):
# “Also recorded” adds a separate entry of the source.
# Columns and labels:
# [1] = test system: large mouse cholangiocyte lines; assay: cAMP levels (RIA) in large mouse cholangiocyte lines; type: cell-based; details: melatonin 10^−11 M for 5 minutes
# Excerpt: The expression of MT1 and MT2 receptors in immortalized large cholangiocytes was first evaluated by immunofluorescence (Francis et al., 2008). Images were visualized using an Olympus IX-71 confocal microscope. For all immunoreactions, negative controls (with normal serum from the same species substituted for the primary antibody) were included. It was next evaluated by commercially available radioimmunoassay (RIA) kits ([…] et al., 1998; Kato et al., 1992; […] et al., 1999; […] et al., 2004) for cAMP levels ([…] et al., 1998; Kato et al., 1992; […] Shiu et al., 2010). […] […] et al., 1992; Ramirez-Rodriguez et al., 2009; […], 1999). […] Shiu et al., 2010) before evaluating by immunoblots (Francis et al., 2008) the expression of PCNA and the phosphorylation of PKA and EKR1/2.
# [2] = test system: Mz-ChA-1 cells; assay: Mz-ChA-1 cholangiocarcinoma xenograft in nude mice: tumor size and immunohistochemistry of tumor sections; type: in vivo, nude (nu/nu) mice
# Protocol: AANAT expression was assessed in liver biopsy samples from CCA patients and controls by immunohistochemistry, and in non-malignant cholangiocytes and intra- and extrahepatic CCA lines by qPCR and immunoblots. Melatonin secretion was assessed in the supernatant of normal and CCA lines, and serum and bile from controls and CCA patients by EIA. In the CCA line Mz-ChA-1 stably overexpressing AANAT, the expression of AANAT, melatonin secretion, and CCA proliferation were studied after 48 hr of incubation. In in vivo studies, Mz-ChA-1 cells were injected Sub Q into the hind flanks of nu/nu mice. Tumors were allowed to develop and volumes were measured for 41 days during treatment with saline or melatonin (4 mg/kg BW, IP 3×wk). Tumors were analyzed for AANAT, PCNA, CK-19 and Bax by qPCR and immunoblots. Tumor tissue sections were analyzed for TUNEL, and staining for AANAT, PCNA and CK-19.
# Experiments were performed to evaluate the in vivo effect of melatonin on the growth of cholangiocarcinoma cell lines implanted in the flanks of athymic mice (Francis H et al., 2009). Male BALB/c 6-wk-old nude (nu/nu) mice (Taconic Farms. Hudson, N.Y.) were kept in a temperature-controlled environment (20-22° C.) with 12-hr light-dark cycles, fed ad libitum standard mouse chow, and with free access to drinking water. Mz-ChA-1 cells (5×10^6) were suspended in 0.2 ml of extracellular matrix gel and injected subcutaneously in the rear flanks of the nude mice. After the establishment of the tumor (one week with a tumor size of ˜5 mm^3) mice (n=4) were treated with vehicle (5% ethanol in water) or melatonin (4 mg/kg BW, dissolved in 5% aqueous ethanol solution) (Sewerynek et al., 1995) by IP injections three times a week. Tumor variables were measured three times a week by an electronic caliper, and volume was determined as follows: tumor volume (mm^3)=0.5×[length (mm)×width (mm)×height (mm)]. The measurements started from the first week when the tumor mass was established. After 43 days of treatment, were anesthetized with sodium pentobarbital (50 mg/kg BW IP) and tumor tissues were harvested from the flanks of the mice. Heart, liver, and kidney tissues were collected for evaluation of organ damage by H&E staining of paraffin-embedded sections ([…]). All experiments were conducted under the guidelines of the Scott & White and Texas A&M HSC IACUC Committee. Tumors were allowed to grow until maximum allowable tumor burden was reached as set forth by the Scott & White and Texas A&M HSC IACUC tumor burden policy. Tumor tissues were fixed for 4 hr in 10% buffered formalin and embedded in low-temperature fusion paraffin. Subsequently, sections (4-5 mm) were stained: (i) with H & E for evaluation of necrosis (Francis et al., 2009); and (ii) for PCNA (a marker of proliferation) (Francis et al., 2009), cleaved caspase-3 (for measurement of apoptosis) (Arai et al., 2005), AANAT, ASMT, melatonin, MT1 and MT2 by immunohistochemistry (Francis et al., 2009). Negative controls were obtained by staining the tumor sections with non-immune serum with the omission of the primary antibody. Semiquantitative analysis for these markers was evaluated by image-analysis software, Image-Pro Plus (Media Cybernetics, Silver Springs, Md.) (Lejeune et al., 2008). Three randomly chosen fields were calculated for statistics.
# [3] = test system: CCA; assay: Sensitization of CCA to 5-fluorouracil and gemcitabine cytotoxicity in vitro; type: cell-based
# [4] = H&E evaluation of organ damage in melatonin-treated rats; type: in vivo, rat; details: normal and BDL rats treated with melatonin
# Protocol: The following was also evaluated in paraffin-embedded liver sections ([…]): (i) lobular necrosis; (ii) the intrahepatic bile duct mass (IBDM) of large ([…]) (Alpini et al., 1997; Glaser et al., 2009) cholangiocytes, the only biliary cell types proliferating following BDL (Alpini et al., 1998; Glaser et al., 2009) and (iii) the percentage of cholangiocyte apoptosis by semiquantitative terminal deoxynucleotidyltransferase biotin-dUTP nick-end labeling (TUNEL) kit (Apoptag; Chemicon International, Inc.) (Glaser et al., 2010). Lobular necrosis was measured in liver sections stained for hematoxylin and eosin (Glaser et al., 2010). Lobular necrosis was scored as follows: −=0 foci; +/−=<2 foci; +=2-4 foci; and ++=>4 foci (Glaser et al., 2010). The IBDM was measured as area occupied by CK-19 positive-bile duct/total area×100 (Glaser et al., 2010). It was also evaluated by H&E of sections if melatonin administration induces the damage of kidney, heart, stomach, spleen and small and large intestine of normal and BDL rats. The sections from the selected were evaluated in a blinded-fashion by two board-certified pathologists by a BX-51 light microscope (Olympus, Tokyo, Japan) equipped with a camera.
# [5] = tumor sections, semiquantitative immunohistochemistry
structure (smiles),measurement,setting,value
COc1ccc2[nH]cc(CCNC(C)=O)c2c1 [melatonin],cAMP levels,[1],decreased
same,Tumor size / xenograft tumor growth,"[2]; nude mice, melatonin 4 mg/kg BW IP three times a week vs. vehicle",significant decrease; also recorded: significantly reduced
same,Necrosis (percentage of the whole field of section),"[2]; tumor sections, H&E, 4 mg/kg BW IP three times a week",>75%^ψ
same,AANAT,[2]; [5],1584.52 ± 127
same,ASMT,[2]; [5],46051.09 ± 13063.04
same,Cleaved caspase-3,[2]; [5],4490.66 ± 1053.52
same,MT1,[2]; [5],1847.76 ± 419.9
same,MT2,[2]; [5],1417.96 ± 425.71
same,Melatonin (immunoreactivity),[2]; [5],41231.48 ± 7634.43
same,PCNA,[2]; [5],0.25 ± 0.09 (% of total % of total nucleus
same,Sensitization of CCA to the cytotoxic effects of 5-fluorouracil (5-FU),[3],~2 fold
same,Sensitization of CCA to the cytotoxic effects of gemcitabine,[3],~2 fold
same,"Morphological damage of kidney, heart, stomach, spleen and small and large intestine",[4],No morphological damage
